# Source: US7109193B2, “Tricyclic diazepines tocolytic oxytocin receptor antagonists” (Wyeth, priority 2001, dated 2006)
# Target: T1, human vasopressin V2 receptor subtype (Homo sapiens, UniProt P30518)
# T1 construct: host or cells: CHO cells (pZeoSV vector)
# Test: Vasopressin binding in Chinese Hamster Ovary cell membranes expressing human vasopressin V2 subtype receptors
# Conditions: 100 nM, CHO cell membranes, [3H]arginine vasopressin, values without parentheses
# Procedure, shortened: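 Radioligand displacement on membranes from CHO cells stably expressing human V2 receptor, 25 to 50 μg protein/well, in 50 mM Tris-HCl pH 7.4 with MgCl2, BSA and protease inhibitors. [^3H]arginine vasopressin (8 nM working solution) incubated 60 min at room temperature; bound label measured by filtration and scintillation counting.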
# T1 sequence (P30518 whole entry): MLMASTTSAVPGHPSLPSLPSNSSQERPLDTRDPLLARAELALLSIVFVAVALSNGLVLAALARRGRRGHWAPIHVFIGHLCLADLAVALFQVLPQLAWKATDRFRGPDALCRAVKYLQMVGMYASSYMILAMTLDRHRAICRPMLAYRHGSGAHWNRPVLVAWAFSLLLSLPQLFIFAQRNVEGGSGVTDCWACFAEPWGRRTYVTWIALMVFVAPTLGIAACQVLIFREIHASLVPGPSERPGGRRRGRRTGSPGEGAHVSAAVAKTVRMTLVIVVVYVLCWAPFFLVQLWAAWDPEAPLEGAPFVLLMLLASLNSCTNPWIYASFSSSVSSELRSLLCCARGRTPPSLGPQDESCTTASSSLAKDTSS
row,Structure (SMILES),inhibition at 0.1 µM
1,"COc1ccccc1-c1ccc(C(=O)N2Cc3ccc(C(=O)n4ccnc4)n3Cc3ccccc32)cc1OC [Example 293, {10-[(2,2′-Dimethoxy[1,1′-biphenyl]-4-yl)carbonyl]-10,11-dihydro-5H-pyrrolo[2,1-c][1,4]benzodiazepin-3-yl}(1H-imidazol-1-yl)methanone]",3%
2,"CC(C)N1CCN(C(=O)c2ccc3n2Cc2ccccc2N(C(=O)c2ccc(-c4cccc5ccccc45)cc2Cl)C3)CC1 [Example 243, {10-[2-Chloro-4-(1-naphthyl)benzoyl]-10,11-dihydro-5H-pyrrolo[2,1-c][1,4]benzodiazepin-3-yl}(4-isopropyl-1-piperazinyl)methanone]",21%
3,"COc1ccccc1-c1ccc(C(=O)N2Cc3ccc(C(=O)N4CCCN(C)CC4)n3Cc3ccccc32)cc1C [Example 62, {10-[(2′-Methoxy-2-methyl[1,1′-biphenyl]-4-yl)carbonyl]-10,11-dihydro-5H-pyrrolo[2,1-c][1,4]benzodiazepin-3-yl}(4-methyl-1,4-diazepan-1-yl)methanone]",27%
4,"COc1cc(C(=O)N2Cc3ccc(C(=O)N4CCCN(C)CC4)n3Cc3ccccc32)ccc1-c1ccccc1C [Example 66, {10-[(2-Methoxy-2′-methyl[1,1′-biphenyl]-4-yl)carbonyl]-10,11-dihydro-5H-pyrrolo[2,1-c][1,4]benzodiazepin-3-yl}(4-methyl-1,4-diazepan-1-yl)methanone]",20%
5,"COc1ccccc1-c1ccc(C(=O)N2Cc3ccc(C(=O)N[C@@H]4CN5CCC4CC5)n3Cc3ccccc32)cc1OC [Example 300, N-[(3S)-1-Azabicyclo[2.2.2]oct-3-yl]-10-[(2,2′-dimethoxy[1,1′-biphenyl]-4-yl)carbonyl]-10,11-dihydro-5H-pyrrolo[2,1-c][1,4]benzodiazepine-3-carboxamide]",19%
6,"COc1cc(C(=O)N2Cc3ccc(C(=O)N4CCC(N5CCCCC5)CC4)n3Cc3ccccc32)ccc1-n1c(C)ccc1C [Example 311, {10-[4-(2,5-Dimethyl-1H-pyrrol-1-yl)-3-methoxy-benzoyl]-10,11-dihydro-5H-pyrrolo[2,1-c][1,4]benzodiazepin-3-yl}[4-(1-piperidinyl)-1-piperidinyl]-methanone]",7%
7,"COc1cccc(-c2cc(OC)c(C(=O)N3Cc4ccc(C(=O)N5CCN(CCCN(C)C)CC5)n4Cc4ccccc43)cc2Cl)c1 [Example 252, {10-[(6-Chloro-3,3′-dimethoxy[1,1′-biphenyl]-4-yl)carbonyl]-10,11-dihydro-5H-pyrrolo[2,1-c][1,4]benzodiazepin-3-yl}{4-[3-(dimethylamino)propyl]-1-piperazinyl}methanone]",21%
8,"COc1cccc(-c2cc(OC)c(C(=O)N3Cc4ccc(C(=O)N5CCN(C)CC5)n4Cc4ccccc43)cc2Cl)c1 [Example 54, {10-[(6-Chloro-3,3′-dimethoxy[1,1′-biphenyl]-4-yl)carbonyl]-10,11-dihydro-5H-pyrrolo[2,1-c][1,4]benzodiazepin-3-yl}(4-methyl-1-piperazinyl)methanone]",7%
9,"COc1cccc(-c2ccc(C(=O)N3Cc4ccc(C(=O)N5CCCN(C)CC5)n4Cc4ccccc43)cc2C)c1 [Example 64, {10-[(3′-Methoxy-2-methyl[1,1′-biphenyl]-4-yl)carbonyl]-10,11-dihydro-5H-pyrrolo[2,1-c][1,4]benzodiazepin-3-yl}(4-methyl-1,4-diazepan-1-yl)methanone]",19%
10,"COc1cc(C(=O)N2Cc3ccc(C(=O)N4CCN(C)CC4)n3Cc3ccccc32)ccc1-c1cccc2ccccc12 [Example 55, {10-[3-Methoxy-4-(1-naphthyl)benzoyl]-10,11-dihydro-5H-pyrrolo[2,1-c][1,4]benzodiazepin-3-yl}(4-methyl-1-piperazinyl)methanone]",30%
11,"Cc1cc(C(=O)N2Cc3ccc(C(=O)n4ccnc4)n3Cc3ccccc32)ccc1-c1ccccc1C(F)(F)F [Example 294, 1H-Imidazol-1-yl(10-{[2-methyl-2′-(trifluoromethyl)[1,1′-biphenyl]-4-yl]carbonyl}-10,11-dihydro-5H-pyrrolo[2,1-c][1,4]benzodiazepin-3-yl)methanone]",-2%
12,"COc1cc(C(=O)N2Cc3ccc(C(=O)N4CCN(C)CC4)n3Cc3ccccc32)ccc1-c1ccccc1C [Example 53, {10-[(2-Methoxy-2′-methyl[1,1′-biphenyl]-4-yl)carbonyl]-10,11-dihydro-5H-pyrrolo[2,1-c][1,4]benzodiazepin-3-yl}(4-methyl-1-piperazinyl)methanone]",23%
13,"COc1cc(C(=O)N2Cc3ccc(C(=O)NCCCN(C)C)n3Cc3ccccc32)ccc1-c1ccccc1C [Example 77, N-[3-(Dimethylamino)propyl]-10-[(2-methoxy-2′-methyl[1,1′-biphenyl]-4-yl)carbonyl]-10,11-dihydro-5H-pyrrolo[2,1-c][1,4]benzodiazepine-3-carboxamide]",28%
14,"COc1cc(-c2ccccc2C)c(Cl)cc1C(=O)N1Cc2ccc(C(=O)N3CCN(CCCN(C)C)CC3)n2Cc2ccccc21 [Example 251, {10-[(6-Chloro-3-methoxy-2′-methyl[1,1′-biphenyl]-4-yl)carbonyl]-10,11-dihydro-5H-pyrrolo[2,1-c][1,4]benzodiazepin-3-yl}{4-[3-(dimethylamino)propyl]-1-piperazinyl}methanone]",24%
15,"COc1cc(C(=O)N2Cc3ccc(C(=O)n4ccnc4)n3Cc3ccccc32)ccc1-c1ccccc1C [Example 290, 1H-Imidazol-1-yl-{10-[(2-methoxy-2′-methyl[1,1′-biphenyl]-4-yl)carbonyl]-10,11-dihydro-5H-pyrrolo[2,1-c][1,4]benzodiazepin-3-yl}methanone]",-6%
16,"COc1ccccc1-c1ccc(C(=O)N2Cc3ccc(C(=O)N[C@H]4CN5CCC4CC5)n3Cc3ccccc32)cc1C [Example 298, N-[(3R)-1-Azabicyclo[2.2.2]oct-3-yl]-10-[(2′-methoxy-2-methyl[1,1′-biphenyl]-4-yl)carbonyl]-10,11-dihydro-5H-pyrrolo[2,1-c][1,4]benzodiazepine-3-carboxamide]",29%
17,"COc1cccc(-c2ccc(C(=O)N3Cc4ccc(C(=O)N5CCN(C)CC5)n4Cc4ccccc43)cc2C)c1 [Example 51, {10-[(3′-Methoxy-2-methyl[1,1′-biphenyl]-4-yl)carbonyl]-10,11-dihydro-5H-pyrrolo[2,1-c][1,4]benzodiazepin-3-yl}(4-methyl-1-piperazinyl)methanone]",17%
18,"COc1cc(C(=O)N2Cc3ccc(C(=O)N4CCN(CCCN(C)C)CC4)n3Cc3ccccc32)ccc1-n1c(C)ccc1C [Example 320, {4-[3-(Dimethylamino)propyl]-1-piperazinyl}{10-[4-(2,5-dimethyl-1H-pyrrol-1-yl)-3-methoxybenzoyl]-10,11-dihydro-5H-pyrrolo[2,1-c][1,4]benzodiazepin-3-yl}methanone]",21%
19,"CN(C)CCCN1CCN(C(=O)c2ccc3n2Cc2ccccc2N(C(=O)c2ccc(-c4cccc5ccccc45)cc2Cl)C3)CC1 [Example 256, {10-[2-Chloro-4-(1-naphthyl)benzoyl]-10,11-dihydro-5H-pyrrolo[2,1-c][1,4]benzodiazepin-3-yl}{4-[3-(dimethylamino)propyl]-1-piperazinyl}methanone]",40%
20,"COc1ccccc1-c1ccc(C(=O)N2Cc3ccc(C(=O)N4CCN(C)CC4)n3Cc3ccccc32)cc1C [Example 49, {10-[(2′-Methoxy-2-methyl[1,1′-biphenyl]-4-yl)carbonyl]-10,11-dihydro-5H-pyrrolo[2,1-c][1,4]benzodiazepin-3-yl}(4-methyl-1-piperazinyl)methanone]",27%
21,"Cc1ccccc1-c1ccc(C(=O)N2Cc3ccc(C(=O)N4CCN(CCCN(C)C)CC4)n3Cc3ccccc32)cc1 [Example 249, {4-[3-(Dimethylamino)propyl]-1-piperazinyl}{10-[(2′-methyl[1,1′-biphenyl]-4-yl)carbonyl]-10,11-dihydro-5H-pyrrolo[2,1-c][1,4]benzodiazepin-3-yl}methanone]",9%
22,"COc1ccccc1-c1ccc(C(=O)N2Cc3ccc(C(=O)NCCCN(C)C)n3Cc3ccccc32)cc1C [Example 72, N-[3-(Dimethylamino)propyl]-10-[(2′-methoxy-2-methyl[1,1′-biphenyl]-4-yl)carbonyl]-10,11-dihydro-5H-pyrrolo[2,1-c][1,4]benzodiazepine-3-carboxamide]",26%
23,"COc1cccc(-c2ccc(C(=O)N3Cc4ccc(C(=O)n5ccnc5)n4Cc4ccccc43)cc2C)c1 [Example 289, 1H-Imidazol-1-yl-{10-[(3′-methoxy-2-methyl[1,1′-biphenyl]-4-yl)carbonyl]-10,11-dihydro-5H-pyrrolo[2,1-c][1,4]benzodiazepin-3-yl}methanone]",7%
24,"COc1cccc(-c2ccc(C(=O)N3Cc4ccc(C(=O)N5CCN(CCCN(C)C)CC5)n4Cc4ccccc43)cc2C)c1 [Example 248, {4-[3-(Dimethylamino)propyl]-1-piperazinyl}{10-[(3′-methoxy-2-methyl[1,1′-biphenyl]-4-yl)carbonyl]-10,11-dihydro-5H-pyrrolo[2,1-c][1,4]benzodiazepin-3-yl}methanone]",7%
25,"COc1cc(C(=O)N2Cc3ccc(C(=O)N4CCCN(C)CC4)n3Cc3ccccc32)ccc1-c1cccc2ccccc12 [Example 68, {10-[3-Methoxy-4-(1-naphthyl)benzoyl]-10,11-dihydro-5H-pyrrolo[2,1-c][1,4]benzodiazepin-3-yl}(4-methyl-1,4-diazepan-1-yl)methanone]",29%
26,"COc1cc(C(=O)N2Cc3ccc(C(=O)N4CCN(CCCN(C)C)CC4)n3Cc3ccccc32)ccc1-c1ccccc1C [Example 250, {4-[3-(Dimethylamino)propyl]-1-piperazinyl}{10-[(2-methoxy-2′-methyl[1,1′-biphenyl]-4-yl)carbonyl]-10,11-dihydro-5H-pyrrolo[2,1-c][1,4]benzodiazepin-3-yl}methanone]",-10%
